Laboratory results: article PMC11289166 (Biochemistry, 2024)
“Also recorded” adds a separate entry of the source. Ends that are not written are not given here. * marks the point of attachment. MTSL = nitroxide spin label, CC1(C)C=C(CS*)C(C)(C)N1[O]

Legend:
[1] = target: T1, CRY Asn253Ala/Gln254Ala (Drosophila melanogaster, UniProt O77059, N253A/Q254A); conditions: DEER; light state and dark-state proxy; compared with WT CRYΔ
[2] = target: CRYΔ (residues 1-520) (Drosophila melanogaster, UniProt O77059); format: binding; conditions: fluorescence polarization; dark and light
CRYΔ (residues 1-520), sequence (O77059 1-520, stated change not applied): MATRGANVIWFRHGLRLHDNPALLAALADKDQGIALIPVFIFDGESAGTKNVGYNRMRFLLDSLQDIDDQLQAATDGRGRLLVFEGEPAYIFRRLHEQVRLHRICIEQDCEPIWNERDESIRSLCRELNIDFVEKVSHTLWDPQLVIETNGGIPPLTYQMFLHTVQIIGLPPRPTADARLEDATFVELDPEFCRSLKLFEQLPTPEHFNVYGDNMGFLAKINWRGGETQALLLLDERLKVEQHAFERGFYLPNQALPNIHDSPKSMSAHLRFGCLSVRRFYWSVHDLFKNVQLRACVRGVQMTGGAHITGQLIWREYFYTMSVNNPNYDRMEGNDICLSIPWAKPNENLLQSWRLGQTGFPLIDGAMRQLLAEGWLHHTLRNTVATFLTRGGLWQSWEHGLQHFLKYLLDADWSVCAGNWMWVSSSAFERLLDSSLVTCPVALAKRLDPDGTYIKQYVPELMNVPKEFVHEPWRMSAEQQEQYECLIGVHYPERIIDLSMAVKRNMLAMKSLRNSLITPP

[3] = target: CRY Full-Length (residues 1-539) (Drosophila melanogaster, UniProt O77059); format: binding; conditions: fluorescence polarization; dark and light
CRY Full-Length (residues 1-539), sequence (O77059 1-539): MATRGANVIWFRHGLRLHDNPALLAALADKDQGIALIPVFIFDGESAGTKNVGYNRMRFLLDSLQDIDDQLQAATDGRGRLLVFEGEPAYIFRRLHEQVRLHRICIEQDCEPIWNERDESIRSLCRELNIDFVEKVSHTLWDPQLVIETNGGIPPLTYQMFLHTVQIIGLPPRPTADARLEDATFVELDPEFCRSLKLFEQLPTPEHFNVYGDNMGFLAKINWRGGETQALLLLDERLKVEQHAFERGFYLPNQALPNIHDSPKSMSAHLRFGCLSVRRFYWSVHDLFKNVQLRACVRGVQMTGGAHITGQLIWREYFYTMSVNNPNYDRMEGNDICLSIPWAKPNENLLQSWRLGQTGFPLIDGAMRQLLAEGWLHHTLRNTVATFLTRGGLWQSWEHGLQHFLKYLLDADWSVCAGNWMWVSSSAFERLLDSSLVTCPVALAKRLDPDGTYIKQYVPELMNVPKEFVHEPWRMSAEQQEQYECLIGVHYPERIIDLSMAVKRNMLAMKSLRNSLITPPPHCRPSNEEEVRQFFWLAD

[4] = target: CRY Arg237Ala (Drosophila melanogaster, UniProt O77059, R237A); format: binding; conditions: fluorescence polarization; dark and light
CRY Arg237Ala, sequence (O77059 1-539 R237A): as the sequence (O77059 1-539) above, with R237A counted along it

[5] = target: T1, CRY Asn253Ala/Gln254Ala; format: binding; conditions: fluorescence polarization; dark and light
[6] = tested on: CRYΔ; conditions: ref [20]-[22]; cited from earlier work

T1 sequence (O77059 1-539 N253A/Q254A): as the sequence (O77059 1-539) above, with N253A, Q254A counted along it

S-TIMN-SL: S-TIMN spin-labeled with MTSL (MDWLLATPQLYSAFSSLGC(MTSL))
interaction of spin-labeled S-TIMN with Asn253Ala/Gln254Ala (in words) [1]: considerably different than that observed for WT CRYΔ

MDWLLATPQLYSAFSSLGC [S-TIMN]
binding to CRYΔ (in words) [2]: bound S-TIMN in both dark and light, but with somewhat higher affinity in the light; also recorded: reasonably high affinity in the dark and even tighter affinity in the light; also recorded: more strongly in light than dark | binding to full-length CRY (in words) [3]: bound to full-length CRY (residues 1-539) only in light with an affinity similar to that seen for CRYΔ in light | binding to Arg237Ala (in words) [4]: no detectable binding of S-TIMN in either dark or light; also recorded: does not bind to CRY in either dark or light | binding to Asn253Ala/Gln254Ala (in words) [5]: bound both in dark and light, with stronger binding and a larger fraction of binding in the dark

B1: full-length TIM: Drosophila core oscillator protein Timeless (protein, UniProt P49021 1-1398, looked up)
chain: MDWLLATPQLYSAFSSLGCLEGDTYVVNPNALAILEEINYKLTYEDQTLRTFRRAIGFGQNVRSDLIPLLENAKDDAVLESVIRILVNLTVPVECLFSVDVMYRTDVGRHTIFELNKLLYTSKEAFTEARSTKSVVEYMKHILESDPKLSPHKCDQINNCLLLLRNILHIPETHAHCVMPMMQSMPHGISMQNTILWNLFIQSIDKLLLYLMTCPQRAFWGVTMVQLIALIYKDQHVSTLQKLLSLWFEASLSESSEDNESNTSPPKQGSGDSSPMLTSDPTSDSSDNGSNGRGMGGGMREGTAATLQEVSRKGQEYQNAMARVPADKPDGSEEASDMTGNDSEQPGSPEQSQPAGESMDDGDYEDQRHRQLNEHGEEDEDEDEVEEEEYLQLGPASEPLNLTQQPADKVNNTTNPTSSAPQGCLGNEPFKPPPPLPVRASTSAHAQMQKFNESSYASHVSAVKLGQKSPHAGQLQLTKGKCCPQKRECPSSQSELSDCGYGTQVENQESISTSSNDDDGPQGKPQHQKPPCNTKPRNKPRTIMSPMDKKELRRKKLVKRSKSSLINMKGLVQHTPTDDDISNLLKEFTVDFLLKGYSYLVEELHMQLLSNAKVPIDTSHFFWLVTYFLKFAAQLELDMEHIDTILTYDVLSYLTYEGVSLCEQLELNARQEGSDLKPYLRRMHLVVTAIREFLQAIDTYNKVTHLNEDDKAHLRQLQLQISEMSDLRCLFVLLLRRFNPSIHSKQYLQDLVVTNHILLLILDSSAKLGGCQTIRLSEHITQFATLEVMHYYGILLEDFNNNGEFVNDCIFTMMHHIGGDLGQIGVLFQPIILKTYSRIWEADYELCDDWSDLIEYVIHKFMNTPPKSPLTIPTTSLTEMTKEHNQEHTVCSWSQEEMDTLYWYYVQSKKNNDIVGKIVKLFSNNGNKLKTRISIIQQLLQQDIITLLEYDDLMKFEDAEYQRTLLTTPTSATTESGIEIKECAYGKPSDDVQILLDLIIKENKAQHLLWLQRILIECCFVKLTLRSGLKVPEGDHIMEPVAYHCICKQKSIPVVQWNNEQSTTMLYQPFVLLLHKLGIQLPADAGSIFARIPDYWTPETMYGLAKKLGPLDKLNLKFDASELEDATASSPSRYHHTGPRNSLSSVSSLDVDLGDTEELALIPEVDAAVEKAHAMASTPSPSEIFAVPKTKHCNSIIRYTPDPTPPVPNWLQLVMRSKCNHRTGPSGDPSDCIGSSSTTVDDEGFGKSISAATSQAASTSMSTVNPTTTLSLNMLNTFMGSHNENSSSSGCGGTVSSLSMVALMSTGAAGGGGNTSGLEMDVDASMKSSFERLEVNGSHFSRANNLDQEYSAMVASVYEKEKELNSDNVSLASDLTRMYVSDEDDRLERTEIRVPHYH
modifications: full-length
binding of TIM to CRYΔ (in words) [6]: binds TIM in both dark and light
